This is an account of results in ChEMBL document CHEMBL5214930, “Discovery of the First Selective IDO2 Inhibitor As Novel Immunotherapeutic Avenues for Rheumatoid Arthritis” (J Med Chem, 2022).

Each structure is given as a SMILES string. Activity calls are given as the source filed them. No cut-off for these calls is given here. Where only a bound is given, the exact number is not on record here.

Assay [1] concerns HeLa. The experiment in a line: Antiproliferative activity against human HeLa cells. Format: functional, cell-based.
Assay [2] deals with T1, Indoleamine 2,3-dioxygenase 1 (Homo sapiens, UniProt P14902). The experiment in a line: Inhibition of recombinant human IDO1 in HeLa cells at 100 nM relative to control. Format: cell-based.
Target sequence in this assay (P14902 whole entry, looked up): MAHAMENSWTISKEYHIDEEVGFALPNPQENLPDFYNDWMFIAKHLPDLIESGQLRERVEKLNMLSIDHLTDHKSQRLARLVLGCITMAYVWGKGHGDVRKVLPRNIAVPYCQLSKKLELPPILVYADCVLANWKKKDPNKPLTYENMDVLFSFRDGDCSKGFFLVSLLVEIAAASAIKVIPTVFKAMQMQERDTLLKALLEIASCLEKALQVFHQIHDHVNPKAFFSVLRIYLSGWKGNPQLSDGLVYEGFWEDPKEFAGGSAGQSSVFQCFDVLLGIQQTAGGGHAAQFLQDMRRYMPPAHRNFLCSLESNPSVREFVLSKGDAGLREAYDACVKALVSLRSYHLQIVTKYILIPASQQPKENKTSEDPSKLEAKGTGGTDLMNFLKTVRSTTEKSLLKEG
For assay [3], the target named is T2, Indoleamine 2,3-dioxygenase 2 (Homo sapiens) (UniProt Q6ZQW0).
T2 sequence (whole entry): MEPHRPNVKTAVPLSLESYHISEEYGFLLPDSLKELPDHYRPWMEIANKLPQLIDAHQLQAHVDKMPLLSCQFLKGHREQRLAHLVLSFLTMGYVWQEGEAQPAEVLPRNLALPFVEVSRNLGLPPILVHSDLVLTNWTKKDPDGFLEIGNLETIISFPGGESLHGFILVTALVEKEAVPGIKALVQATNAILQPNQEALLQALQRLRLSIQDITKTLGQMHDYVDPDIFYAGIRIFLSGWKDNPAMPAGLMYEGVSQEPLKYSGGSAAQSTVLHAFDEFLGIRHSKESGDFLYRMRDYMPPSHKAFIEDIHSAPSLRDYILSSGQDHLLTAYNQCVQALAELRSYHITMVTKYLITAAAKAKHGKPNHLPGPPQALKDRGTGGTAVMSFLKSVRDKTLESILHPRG
The experiment in a line: Inhibition of recombinant human IDO2 in HeLa cells at […] relative to control. Format: cell-based.

For assay [4], the system named is HeLa. Briefly: Antiproliferative activity against human HeLa cells at 5 uM. Format: functional.
For assay [5], the target named is T3, Indoleamine 2,3-dioxygenase 2 (Homo sapiens, UniProt Q6ZQW0).
T3 sequence (Q6ZQW0 whole entry): T2 sequence (whole entry)
The experiment in a line: Inhibition of IDO2 (unknown origin).

In assay [6] the test system is Mus musculus. The experiment in a line: Antiinflammatory activity against xylene-induced ear swelling ICR mouse model assessed as swelling inhibition ratio at 100 mg/kg, IG measured after 1 hr. Format: functional. Details: scale not given: the % may be the effect or the level left.
Assay [7] concerns the target T1, Indoleamine 2,3-dioxygenase 1. Briefly: Inhibition of human IDO1.
Target sequence in this assay (P14902 whole entry): as the sequence (P14902 whole entry, looked up) above
The target of assay [8] is T2, Indoleamine 2,3-dioxygenase 2 (Homo sapiens). Briefly: Inhibition of recombinant human IDO2 in HeLa cells at 100 nM relative to control. Format: cell-based.
Assay [9] concerns Mus musculus. The experiment in a line: Antiinflammatory activity against xylene-induced ear swelling ICR mouse model assessed as swelling rate at 100 mg/kg, IG measured after 1 hr (Activity = 58.21 +/- 12.79%). In kind it is functional.
For assay [10], the target named is T3, Indoleamine 2,3-dioxygenase 2. Briefly: Inhibition of human IDO2.
The test system of assay [11] is Mus musculus. Briefly: Antiarthritic activity against collagen-induced arthritis DBA/1J mouse model assessed as paw swelling at 15 mg/kg, ip administered from day 57 to 74 post CFA injection and measured every 3 days. Format: functional, organism-based. As to conditions: time 17.0 day.
For assay [12], the target named is T1, Indoleamine 2,3-dioxygenase 1. The experiment in a line: Inhibition of IDO1 (unknown origin).
Target sequence in this assay (P14902 whole entry): as the sequence (P14902 whole entry, looked up) above

As for `O=C(NCc1cn(CCNc2nonc2/C(=N/O)NCc2ccccc2Br)nn1)c1ccc[nH]1`, the 50% effective concentration (EC50) (as a rule, the concentration giving half of the maximal effect) with HeLa [1] came out at 2850 nM. The figures for the inhibition in assay [2] and in assay [3] were 1% and 4%, respectively.
`C[C@H](N/C(=N\O)c1nonc1NCCn1cc(CNC(=O)c2ccccn2)nn1)c1cccc(Br)c1`: in the assay with HeLa [4], the Activity is 17.87%. In addition, the results for the inhibition in assay [2] and in assay [3] were 3% and 15%, respectively.
Turning to `c1ccc(CCc2ccccc2-c2c[nH]nn2)cc1`, in assay [5], the IC50 (commonly the concentration at which inhibition is half-maximal) was determined as 51000 nM.
For `O=C(NCc1cn(CCNc2nonc2/C(=N/O)NCc2ccc(F)cc2)nn1)c1ccccn1`, the half-maximal effective concentration (EC50) in the assay on HeLa [1] is 1080 nM. In addition, the inhibition – broadly, the relative decrease from the control value, in per cent – in assay [2] turned out to be 7%; in assay [3] it was 0%.
In the assay on HeLa [1], `O=C(NCc1cn(CCNc2nonc2/C(=N/O)NCc2ccc(Br)cc2)nn1)c1ccccn1` registered an EC50 of 3420 nM. Moreover, the inhibition in [2] was found to be 0%; in assay [3] it was 1%.
As for `O=C(NCc1cn(CCNc2nonc2/C(=N/O)Nc2ccc(F)c(Br)c2)nn1)c1ccccn1`, the Activity is reported as 36.94% with Mus musculus [6] and 36.71% with Mus musculus [9]. Further, the concentration for half-maximal inhibition (IC50) in assay [7] came to 52 nM; in [10] it was 387 nM. Moreover, a half-maximal effect with HeLa [1] (EC50) was put at 129 nM. In addition, the inhibition in assay [2] is 72%; in assay [3], 61%; in assay [8], 39%.
Regarding `O=C(NCc1cn(CCNc2nonc2/C(=N/O)Nc2ccc(F)c(C(F)(F)F)c2)nn1)c1ccccn1`, the midpoint of the response in the assay on HeLa [1], the EC50, lay at 456 nM. In addition, the results for the inhibition in assay [2], in assay [3] and in assay [8] were 44%, 40% and 6%, respectively.
For `Cc1cc(Br)cc(N/C(=N\O)c2nonc2NCCn2cc(CNC(=O)c3ccccn3)nn2)c1` the same measures were 611 nM, 20%, 61% and 14%.
In turn, `Cc1ccc(Br)cc1N/C(=N\O)c1nonc1NCCn1cc(CNC(=O)c2ccccn2)nn1` came in with an EC50 in the assay on HeLa [1] of 663 nM. In addition, the inhibition in assay [2] came to 18%; in assay [3] it was 41%; in assay [8] it was 15%.
In the same order, the values of `O=C(NCc1cn(CCNc2nonc2/C(=N/O)Nc2cc(Br)cc(Br)c2)nn1)c1ccccn1` are 1450 nM, 11%, 52% and 15%.
As to `COc1ccc2cc([C@H](C)C(=O)O)ccc2c1` [NAPROXEN], the Activity was found to be 45.29% in the assay on Mus musculus [6] and 31.85% with Mus musculus [9].
For the molecule `C[C@@H]1CCN(C(=O)CC#N)C[C@@H]1N(C)c1ncnc2[nH]ccc12`, in the assay on Mus musculus [11], the outcome was Active.
With `O=C(NCc1cn(CCNc2nonc2/C(=N/O)NCc2ccc(F)c(Br)c2)nn1)c1ccccn1`, it took 1790 nM to reach a half-maximal effect with HeLa [1] (EC50). Moreover, the inhibition is 26% in [2] and 5% in [3].
For `O=C(NCc1cn(CCNc2nonc2/C(=N/O)Nc2cccc(Cl)c2)nn1)c1ccccn1` the same measures were 106 nM, 69% and 15%.
For the molecule `O=C(NCc1cn(CCNc2nonc2/C(=N/O)NCc2ccc(F)cc2)nn1)c1ccc[nH]1`, in the assay on HeLa [1], a half-maximal response (EC50) required 1210 nM. The values for the inhibition in assay [2] and in [3] were 9% and 10%, respectively.
Take `O=C(NCc1cn(CCNc2nonc2/C(=N/O)Nc2ccc(F)c(Br)c2)nn1)c1ccc[nH]1`: the figures for the Activity with Mus musculus [6] and in the assay with Mus musculus [9] were 52.17% and 27.84%, respectively. In addition, the IC50 in [7] worked out at 47 nM; in assay [10], 134 nM. Besides, the midpoint of the response with HeLa [1], the EC50, lay at 73 nM. Further, the inhibition in assay [2] stood at 75%; in [3], 86%; in [8], 51%.
On to `O=C(NCc1cn(CCNc2nonc2/C(=N/O)Nc2cccc(Br)c2)nn1)c1ccccn1`, for which the concentration for half-maximal inhibition (IC50) in assay [7] was 37 nM; in [10], 575 nM. This molecule also came in with a concentration giving a half-maximal response (EC50) in the assay on HeLa [1] of 65 nM. The inhibition in assay [2] came to 71%; in assay [3], 64%; in [8], 16%.
Take `COc1ccc2[nH]c([S+]([O-])Cc3ncc(C)c(OC)c3C)nc2n1` (configuration not stated) [TENATOPRAZOLE]: the results for the IC50 in assay [12] and in assay [5] were above 100000 nM and 1800 nM, respectively.
With `O=C(NCc1cn(CCNc2nonc2/C(=N/O)Nc2ccc(F)c(Cl)c2)nn1)c1ccccn1`, in the assay on HeLa [1], the half-maximal effective concentration (EC50) turned out to be 234 nM. The values for the inhibition in [2], in assay [3] and in assay [8] were 52%, 38% and 16%, respectively.
For `O=C(NCc1cn(CCNc2nonc2/C(=N/O)Nc2cc(Br)cc(C(F)(F)F)c2)nn1)c1ccccn1`, the EC50 in the assay on HeLa [1] was 3630 nM. The inhibition stood at 5% in assay [2] and 23% in assay [3].
With `C[C@H](N/C(=N\O)c1nonc1NCCn1cc(CNC(=O)c2ccc[nH]2)nn1)c1cccc(Br)c1`, the Activity with HeLa [4] is given as 22.74%. The inhibition in [2] was determined as 14%; in [3], 15%.
`O=C(NCc1cn(CCNc2nonc2/C(=N/O)NCc2cccc(Br)c2)nn1)c1ccc[nH]1` had an EC50 in the assay on HeLa [1] of 835 nM. For the same molecule, the inhibition in [2] turned out to be 12%; in [3] it was 70%; in assay [8], 24%.
In the assay on HeLa [1], `O=C(NCc1cn(CCNc2nonc2/C(=N/O)NCc2ccccc2Br)nn1)c1ccccn1` yielded an EC50 of 4350 nM. Also, the figures for the inhibition in [2] and in assay [3] were 5% and 2%, respectively.
Consider `O=C(NCc1cn(CCNc2nonc2/C(=N/O)NCc2ccc(Br)cc2)nn1)c1ccc[nH]1`, for which, in the assay on HeLa [1], the concentration for a half-maximal effect (EC50) came out at 2630 nM. The inhibition in assay [2] came out at 4%; in assay [3], 0%.
In the same order, the values of `O=C(NCc1cn(CCNc2nonc2/C(=N/O)NCc2ccc(F)c(Br)c2)nn1)c1ccc[nH]1` are 1600 nM, 17% and 0%.
In turn, `O=C(NCc1cn(CCNc2nonc2/C(=N/O)Nc2ccc(F)cc2)nn1)c1ccccn1` showed an EC50 in the assay on HeLa [1] of 1380 nM. Besides, the inhibition was determined as 4% in assay [2], 30% in assay [3] and 5% in [8].
